# Read-outs that look alike come from different tables or passages of the source. Marks after values point to notes of the source that are not given here.
# What was measured:
# [1] = Cancer patients after radiation and chemo-therapy; type: in vivo, human; conditions: IM862 100 μg daily 10 days, 246 patients
# Source text: If it vas determined necessary based on immunological indices, the treatment regimen was repeated in 4-6 months.
# [2] = test system: methicillin-resistant Staphylococcal aureus
# Experimental: Animals were inoculated intraperitoneally with 10×LD of Staphylococcal aureus suspended in brain-heart infusion broth containing 5 percent mucin. The antibiotic was administered s.c., i.p., or p.o., one hour following bacterial inoculation and deaths occurring during the subsequent three days are recorded.
# Two control experiments were conducted. […] The number of survivors at 72 hours was determined. […] The number of survivors at 72 hours was again recorded.
# Test mice were divided into 3 groups.
# T cells = experiment: Intracellular cAMP in T cells; type: cell-based
# Thymectomized patients = type: in vivo, human; conditions: IM862 100 μg daily 10 days, repeated every 4-6 months, 12 patients
# Source text: Prior to therapy these individuals had experienced frequent serious infections including upper respiratory infections.
# [3] = Immune status in early terms after irradiation; type: in vivo, human; conditions: after IM862 therapy
# Experimental: The patients described in Example 42 were tested for blood parameters the first few days after exposure to the radiation of the Chernobyl accident. It could be seen from Table 3 below that response to the treatment was observed even after a few weeks of treatment.
# [4] = test system: Mycobacterium tuberculosis
# [5] = Immune system of guinea pigs after radiation exposure (thymus, lymph node, spleen, blood); type: in vivo
# Source text: Seventy-two of the animals were irradiated with total radiation dose was 1 Gr. […] The selected doses were optimal in stimulating an immune response to ram erythrocytes. Control irradiated and non-irradiated animals (24 guinea pigs to each group) were given saline solution per an analogous schedule. At 5, 10, and 20 days after irradiation the animals were destroyed (8 guinea pigs from each group). The thymus, spleen, and lymph nodes of each animal were extracted and their weight coefficients computed. The number of karyocytes, T-, B-, and O-lymphocytes in each organ was determined. Also, the functional activity of blood lymphocytes in the leukocyte migration inhibition reaction to Con A was assessed and the content of cation proteins in the neutrophils was determined.
# [6] = Immunity and non-specific resistance indices in breast cancer patients after radiotherapy; type: in vivo, human; conditions: after IM862 use
# [7] = Blood parameters of Chernobyl victims after 3 years of treatment; type: in vivo, human; conditions: after therapy, IM862
# Source text: Blood parameters after 3 years of such treatment were restored to the statistical norm prior to their exposure to the radiation.
# [8] = Infected patients (Example 96); type: in vivo, human; conditions: IM862 100 μg 5-10 days, 36 patients
# Source text: A total of 36 patients infected and 24 patients infected were controls.
# [9] = Group 2: IM862 0.01 mg/kg 3 days before inoculation, ampicillin control (0), 5 test animals, 72 hours
# [10] = Group 3: IM862 0.01 mg/kg 3 days + ampicillin 100 mg/kg 1 hr, 5 test animals, 72 hours
# [11] = Group 4: IM862 0.01 mg/kg 3 days + ampicillin 10 mg/kg 1 hr, 5 test animals, 72 hours
# [12] = Group 5: IM862 0.01 mg/kg 3 days + ampicillin 1 mg/kg 1 hr, 5 test animals, 72 hours
# [13] = Group 6: IM862 0.001 mg/kg 3 days + ampicillin 100 mg/kg 1 hr, 5 test animals, 72 hours
# [14] = Group 7: IM862 0.001 mg/kg 3 days + ampicillin 10 mg/kg 1 hr, 5 test animals, 72 hours
# [15] = Group 8: IM862 0.001 mg/kg 3 days + ampicillin 1 mg/kg 1 hr, 5 test animals, 72 hours
# [16] = following two months of treatment, with chemotherapy
# [17] = 20 days after irradiation, IM862 0.01 mg/kg daily for 5 days
substance,measurement,setting,value
Glu-Trp [IM862],clinical effect,[1],normalization of immunological indices
same,Survivors,"[2]; 0.01 mg/kg IM862 3 days prior to bacterial inoculum, no antibiotic",Four of 5 animals survived
same,Percent ip Survivors,[2]; [9],80%
same,Survivors,[2]; [9],4
same,Percent ip Survivors,[2]; [10],100%
same,Survivors,[2]; [10],5
same,Percent ip Survivors,[2]; [11],100%
same,Survivors,[2]; [11],5
same,Percent ip Survivors,[2]; [12],100%
same,Survivors,[2]; [12],5
same,Percent ip Survivors,[2]; [13],100%
same,Survivors,[2]; [13],5
same,Percent ip Survivors,[2]; [14],100%
same,Survivors,[2]; [14],5
same,Percent ip Survivors,[2]; [15],100%
same,Survivors,[2]; [15],5
same,intracellular cAMP concentrations,T cells,an increase of intracellular cAMP concentrations is observed
same,clinical effect,Thymectomized patients,normalization of immunologic indices
same,C3,[3],0.68 ± 0.04 g/L
same,"CD2, %",[3],50.9 ± 2.4%
same,"CD2, abs",[3],1.13 ± 0.07** 10^9/l
same,"CD2-DR+, %",[3],31 ± 3 %
same,"CD2-DR+, abs",[3],0.69 ± 0.08** 10^9/l
same,"CD19, %",[3],30.5 ± 1.9 %
same,"CD19, abs",[3],0.68 ± 0.04** 10^9/l
same,"E-RFC, %",[3],23.4 ± 2.6%
same,IgA,[3],1.11 ± 0.09 g/L
same,IgG,[3],9.2 ± 0.7 g/L
same,IgM,[3],0.58 ± 0.10 g/L
same,"LMI with ConA, %",[3],60 ± 7 %
same,"Leukocytes, abs",[3],6.4 ± 0.8** 10^9/l
same,"Lymphocytes, abs",[3],2.27 ± 0.16** 10^9/l
same,effect on immunological indices,[4]; after 2 months of observation,normalizing effect
same,"positive changes in the lungs, cases out of 37",[4]; after 4-6 months of in-hospital treatment,35 cases
same,"improvement, number of patients",[4]; [16],27
same,"significant improvement, number of patients",[4]; [16],9
same,cation protein count in the blood neutrophils,[5]; 10 and 20 days after irradiation,normalized at 10 and 20 days after irradiation
same,Lymph Node: B-lymphocytes %,[5]; [17],3.5 ± 0.6^x %
same,Lymph Node: B-lymphocytes ×10^3/mg,[5]; [17],9.2 ± 0.9^x ×10^3/mg
same,Lymph Node: Lymphocytes ×10^3/mg,[5]; [17],242.5 ± 31.3^xx ×10^3/mg
same,Lymph Node: O-lymphocytes %,[5]; [17],84.4 ± 12.3%
same,Lymph Node: O-lymphocytes ×10^3/mg,[5]; [17],204.6 ± 33.4^xx ×10^3/mg
same,Lymph Node: T-lymphocytes %,[5]; [17],12.3 ± 0.9%
same,Lymph Node: T-lymphocytes ×10^3/mg,[5]; [17],29.9 ± 2.2^xx ×10^3/mg
same,Lymph Node: Weight coefficient,[5]; [17],0.31 ± 0.03 g/kg
same,Lymph Node: “Active” T-lymphocytes %,[5]; [17],10.3 ± 1.4%
same,Lymph Node: “Active” T-lymphocytes ×10^3/mg,[5]; [17],24.9 ± 3.7^xx ×10^3/mg
same,Splenic: B-lymphocytes %,[5]; [17],27.1 ± 2.6%
same,Splenic: B-lymphocytes ×10^3/mg,[5]; [17],81.6 ± 9.3 ×10^3/mg
same,Splenic: Lymphocytes ×10^3/mg,[5]; [17],260.4 ± 32.3^xx ×10^3/mg
same,Splenic: O-lymphocytes %,[5]; [17],57.4 ± 6.7%
same,Splenic: O-lymphocytes ×10^3/mg,[5]; [17],149.4 ± 15.9^x ×10^3/mg
same,Splenic: T-lymphocytes %,[5]; [17],17.4 ± 1.2%
same,Splenic: T-lymphocytes ×10^3/mg,[5]; [17],45.4 ± 4.1^xx ×10^3/mg
same,Splenic: Weight coefficient,[5]; [17],1.26 ± 0.9 g/kg
same,Splenic: “Active” T-lymphocytes %,[5]; [17],11.1 ± 2.0%
same,Splenic: “Active” T-lymphocytes ×10^3/mg,[5]; [17],28.9 ± 3.9^xx ×10^3/mg
same,Thymic: B-lymphocytes %,[5]; [17],0.9 ± 0.08^xx %
same,Thymic: B-lymphocytes ×10^3/mg,[5]; [17],3.7 ± 0.4 ×10^3/mg
same,Thymic: Lymphocytes ×10^3/mg,[5]; [17],423.3 ± 40.4^xx ×10^3/mg
same,Thymic: O-lymphocytes %,[5]; [17],17.9 ± 0.8%
same,Thymic: O-lymphocytes ×10^3/mg,[5]; [17],75.4 ± 8.6^xx ×10^3/mg
same,Thymic: T-lymphocytes %,[5]; [17],81.3 ± 9.3%
same,Thymic: T-lymphocytes ×10^3/mg,[5]; [17],342.8 ± 30.4^xx ×10^3/mg
same,Thymic: Weight coefficient g/kg,[5]; [17],0.81 ± 0.8^xx g/kg
same,Thymic: “Active” T-lymphocytes %,[5]; [17],57.6 ± 6.2^xx %
same,Thymic: “Active” T-lymphocytes ×10^3/mg,[5]; [17],242.6 ± 26.8^xx ×10^3/mg
same,"percent of leukocyte migration (blood lymphocytes, Con A)","[5]; irradiated guinea pigs, 5 and 20 days after irradiation",normalized this index by 20 days after radiation exposure
same,B-lymphocyte (Ig^+) (×10^9/l),[6],0.17 ± 0.02 ×10^9/l
same,C3-complement,[6],0.68 ± 0.04 g/L
same,Cation,[6],1.49 ± 0.12
same,"LMI with ConA, %",[6],71 ± 5 %
same,Lymphocytes ×10^9/l,[6],1.72 ± 0.21 ×10^9/l
same,OKT4^+/OKT8^+,[6],1.86 ± 0.17
same,Phagocytic index,[6],3.7 ± 0.2
same,T-helpers (OKT4^+),[6],0.39 ± 0.04
same,T-lymphocytes (×10^9/l),[6],0.92 ± 0.12 ×10^9/l
same,T-suppressors (OKT8^+) (×10^9/l),[6],0.21 ± 0.03 ×10^9/l
same,“Active” T-lymphocytes (×10^9/l),[6],0.52 ± 0.07 ×10^9/l
same,DSH to tuberculin (mm),[6]; delayed-skin hypersensitivity,8.7 ± 0.6 mm
same,SI to IM862,[6]; sensitivity index,1.27 ± 0.14
same,"B-Ig+, %",[7],11.0 ± 0.3%
same,"B-Ig+, abs",[7],0.23 ± 0.04 10^9/l
same,"B-IgA+, %",[7],1.9 ± 0.3%
same,"B-IgA+, abs",[7],0.04 ± 0.002 10^9/l
same,"B-IgG+, %",[7],4.8 ± 0.5%
same,"B-IgG+, abs",[7],0.09 ± 0.007 10^9/l
same,"B-IgM+, %",[7],4.1 ± 0.6 %
same,"B-IgM+, abs",[7],0.12 ± 0.003 10^9/l
same,"CD2-DR+, &",[7],32 ± 3 &
same,"CD2-DR+, abs",[7],0.66 ± 0.10** 10^9/l
same,"CD3, %",[7],59.2 ± 2.1 %
same,"CD3, abs",[7],1.21 ± 0.15 10^9/l
same,"CD4, %",[7],36.2 ± 1.7%
same,"CD4, abs",[7],0.74 ± 0.08 10^9/l
same,"CD8, %",[7],23.2 ± 2.1 %
same,"CD8, abs",[7],0.48 ± 0.07** 10^9/l
same,"IMI, %",[7],75 ± 6 %
same,IgA,[7],1.2 ± 0.4 g/L
same,IgG,[7],10.9 ± 1.3 g/L
same,IgM,[7],1.06 ± 0.06 g/L
same,"Leukocytes, abs",[7],5.6 ± 0.4 10^9/l
same,"Lymphocytes, abs",[7],2.1 ± 0.3 10^9/l
same,T4/T8,[7],1.58 ± 0.04
same,clinical effect,[8],reduction of fever

# Reference: patent US20030198617A1, “Pharmaceutical tryptophan containing dipeptide compositions and methods of use thereof” (priority 1993, published 2003)
